# Values of other authors in patent US20140276034A1, “Apparatus Detection of Circulatory Anomalies” (Cardiox Corporation, priority 2013, published 2014).
# Settings: manufacturers specified guideline; cited from earlier work
smiles,measurement,value
"CC1(C)C(=CC=CC=CC=CC2=[N+](CCCCS(=O)(=O)[O-])c3ccc4ccccc4c3C2(C)C)N(CCCCS(=O)(=O)[O-])c2ccc3ccccc3c21.[Na+] [ICG, 1H-benz(e)indolium, 2-[7-[1,3-dihydro-1,1-dimethyl-3-(4-sulfobutyl)-2H-benz[e]indo-2-ylidene]-1,3,5-heptatrienyl]-1,1-dimethyl-3-(4-sulfobutyl)-hydroxide, inner salt, sodium]",maximum ICG dose per day,2 milligrams per kilogram of body weight
